Laboratory results reported in patent US6727232B2, “Nucleoside peptide antibiotics of AA-896” (Wyeth Holdings Corporation, priority 2001, dated 2004).
In brackets after ≈: the same amount, converted by molar mass.

Experiments:
Assay in all cases: Broth dilution MIC
Assay type in all cases: cell-based
[1] = tested on: CNS GC 4537; settings: CNS GC 4537; Mueller-Hinton broth, 18 hours at 35° C.; read-out: Antimicrobial Activity (MIC)
Procedure: (§1) The in vitro antibacterial activity of Example 1 through Example 20 is determined against a spectrum of Gram-positive and Gram-negative bacteria by a standard broth dilution method. Serial dilution of the compounds are made in Mueller-Hinton broth and inoculated with a bacterial suspension. The lowest concentration of compound that inhibited the growth of a bacterial strain after 18 hours of incubation at 35° C. is reported as the minimal inhibitory concentration (MIC) for that strain.

[2] = tested on: CNS GC 4538; settings: CNS GC 4538; Mueller-Hinton broth, 18 hours at 35° C.; read-out: Antimicrobial Activity (MIC)
Procedure: as §1

[3] = tested on: CNS GC 4547; settings: CNS GC 4547; Mueller-Hinton broth, 18 hours at 35° C.; read-out: Antimicrobial Activity (MIC)
Procedure: as §1

[4] = tested on: E. cloacae GC 3783; settings: Enterobacter cloacae, GC3783; E. cloacae GC 3783; Mueller-Hinton broth, 18 hours at 35° C.; read-out: Antimicrobial Activity (MIC)
Procedure: as §1

[5] = tested on: E. coli GC 2203; settings: Escherichia coli, GC2203; E. coli GC 2203; Mueller-Hinton broth, 18 hours at 35° C.; read-out: Antimicrobial Activity (MIC)
Procedure: as §1

[6] = tested on: E. coli GC 3226; settings: Escherichia coli, GC3226; E. coli GC 3226; Mueller-Hinton broth, 18 hours at 35° C.; read-out: Antimicrobial Activity (MIC)
Procedure: as §1

[7] = tested on: E. coli GC 4559; settings: Escherichia coli, GC4559; E. coli GC 4559; Mueller-Hinton broth, 18 hours at 35° C.; read-out: Antimicrobial Activity (MIC)
Procedure: as §1

[8] = tested on: E. coli GC 4560; settings: Escherichia coli, GC4560, 18 h, read-out: Antimicrobial Activity (MIC)
Procedure: as §1

[9] = tested on: E. faecalis GC 2242; settings: Enterococcus faecalis, GC2242; E. faecalis GC 2242; Mueller-Hinton broth, 18 hours at 35° C.; read-out: Antimicrobial Activity (MIC)
Procedure: as §1

[10] = tested on: E. faecalis GC 4555; settings: Enterococcus faecalis, GC4555; E. faecalis GC 4555; Mueller-Hinton broth, 18 hours at 35° C.; read-out: Antimicrobial Activity (MIC)
Procedure: as §1

[11] = tested on: E. faecalis GC 842; settings: Enterococcus faecalis, GC842; E. faecalis GC 842; Mueller-Hinton broth, 18 hours at 35° C.; read-out: Antimicrobial Activity (MIC)
Procedure: as §1

[12] = tested on: K. pneumoniae GC 4534; settings: Klebsiella pneumoniae, GC4534; K. pneumoniae GC 4534; Mueller-Hinton broth, 18 hours at 35° C.; read-out: Antimicrobial Activity (MIC)
Procedure: as §1

[13] = tested on: M. morganii GC 4531; settings: Morganella morganii, GC4531; M. morganii GC 4531; Mueller-Hinton broth, 18 hours at 35° C.; read-out: Antimicrobial Activity (MIC)
Procedure: as §1

[14] = tested on: P. aeruginosa GC 2214; settings: Pseudomonas aeruginosa, GC2214; P. aeruginosa GC 2214; Mueller-Hinton broth, 18 hours at 35° C.; read-out: Antimicrobial Activity (MIC)
Procedure: as §1

[15] = tested on: P. aeruginosa GC 4532; settings: Pseudomonas aeruginosa, GC4532; P. aeruginosa GC 4532; Mueller-Hinton broth, 18 hours at 35° C.; read-out: Antimicrobial Activity (MIC)
Procedure: as §1

[16] = tested on: P. rettgeri GC 4530; settings: Providencia rettgeri, GC4530; P. rettgeri GC 4530; Mueller-Hinton broth, 18 hours at 35° C.; read-out: Antimicrobial Activity (MIC)
Procedure: as §1

[17] = tested on: S. aureus GC 1131; settings: Staphylococcus aureus, GC1131; S. aureus GC 1131; Mueller-Hinton broth, 18 hours at 35° C.; read-out: Antimicrobial Activity (MIC)
Procedure: as §1

[18] = tested on: S. aureus GC 2216; settings: Staphylococcus aureus, GC2216; S. aureus GC 2216; Mueller-Hinton broth, 18 hours at 35° C.; read-out: Antimicrobial Activity (MIC)
Procedure: as §1

[19] = tested on: S. aureus GC 4536; settings: Staphylococcus aureus, GC4536; S. aureus GC 4536; Mueller-Hinton broth, 18 hours at 35° C.; read-out: Antimicrobial Activity (MIC)
Procedure: as §1

[20] = tested on: S. marcescens GC 4077; settings: Serratia marcescens, GC4077; S. marcescens GC 4077; Mueller-Hinton broth, 18 hours at 35° C.; read-out: Antimicrobial Activity (MIC)
Procedure: as §1

SMILES | MIC [1] | MIC [2] | MIC [3] | MIC [4] | MIC [5] | MIC [6] | MIC [7] | MIC [8] | MIC [9] | MIC [10] | MIC [11] | MIC [12] | MIC [13] | MIC [14] | MIC [15] | MIC [16] | MIC [17] | MIC [18] | MIC [19] | MIC [20]
CCCCCN1C(=O)C([C@@H](OC2O[C@H](CN)[C@H](O)[C@H]2OC)[C@H]2O[C@@H](n3ccc(=O)[nH]c3=O)[C@H](O)[C@@H]2O)N(CCCNC(=O)C(NC(=O)C(NC(=O)NC(C(=O)O)C(C)C)C2CCNC(=N)N2)C(O)C(C)C)C1=O (stereo partly drawn) [Example 2, 14-[5-((R)-{[(3R,4S,5R)-5-(Aminomethyl)-4-hydroxy-3-methoxytetrahydro-2furanyl]oxy}{(2S,3S,4R,5R)-5-[2,4-dioxo-3,4-dihydro-1 (2H)-pyrimidinyl]-3,4-dihydroxytetrahydro-2-furanyl}methyl)-2,4-dioxo-3-pentyl-1-imidazolidinyl]-9-(1-hydroxy-2-methylpropyl)-6-(2-iminohexahydro-4-pyrimidinyl)-2-isopropyl-4,7,10-trioxo-3,5,8,11-tetraazatetradecan-1-oic acid] | > 32 µg/mL | > 32 µg/mL | > 32 µg/mL | > 32 µg/mL | > 32 µg/mL | > 32 µg/mL | > 32 µg/mL | 32 µg/mL (≈ 30.7 µM) | > 32 µg/mL | > 32 µg/mL | > 32 µg/mL | > 32 µg/mL | > 32 µg/mL | > 32 µg/mL | > 32 µg/mL | > 32 µg/mL | > 32 µg/mL | > 32 µg/mL | > 32 µg/mL | > 32 µg/mL
CCCCCCN1C(=O)C([C@@H](OC2O[C@H](CN)[C@H](O)[C@H]2OC)[C@H]2O[C@@H](n3ccc(=O)[nH]c3=O)[C@H](O)[C@@H]2O)N(CCCNC(=O)C(NC(=O)C(NC(=O)NC(C(=O)O)C(C)C)C2CCNC(=N)N2)C(O)C(C)C)C1=O (stereo partly drawn) [Example 3, 14-[5-((R)-{[(3R,4S,5R)-5-(Aminomethyl)-4-hydroxy-3-methoxytetrahydro-2-furanyl]oxy}{(2S,3S,4R,5R)-5-[2,4-dioxo-3,4-dihydro-1 (2H)-pyrimidinyl]-3,4-dihydroxytetrahydro-2-furanyl}methyl)-3-hexyl-2,4-dioxo-1-imidazolidinyl]-9-(1-hydroxy-2-methylpropyl)-6-(2-iminohexahydro-4-pyrimidinyl)-2-isopropyl-4,7,10-trioxo-3,5,8,11-tetraazatetradecan-1-oic acid] | > 32 µg/mL | > 32 µg/mL | > 32 µg/mL | > 32 µg/mL | > 32 µg/mL | > 32 µg/mL | > 32 µg/mL | 32 µg/mL (≈ 30.3 µM) | > 32 µg/mL | > 32 µg/mL | > 32 µg/mL | > 32 µg/mL | > 32 µg/mL | > 32 µg/mL | > 32 µg/mL | > 32 µg/mL | > 32 µg/mL | > 32 µg/mL | > 32 µg/mL | > 32 µg/mL
